Test results taken from US9179678B2, “Substituted [1,2,4]triazoles and substituted tetrazoles as herbicides” (SYNGENTA LIMITED, priority 2012, dated 2015).

Columns and labels:
Format in all cases: in vivo
Setaria faberi (SETFA) [1] = experiment: Pre-emergence glasshouse herbicide test; details: PRE Application, after 13 days
Setaria faberi (SETFA) [2] = experiment: Post-emergence glasshouse herbicide test; details: POST Application, after 13 days
How it was run: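 Setaria faberi seeds were sown in standard soil in pots and grown for 8 days in a glasshouse at 24/16° C. day/night, 14 hours light and 65% humidity. Plants were then sprayed post-emergence with the active ingredient in acetone/water (50:50) containing 0.5% Tween 20, regrown under the same conditions with twice-daily watering, and scored for percentage damage after 13 days.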

Solanum nigrum (SOLNI) [3] = experiment: Pre-emergence glasshouse herbicide test; details: PRE Application, after 13 days
Solanum nigrum (SOLNI) [4] = experiment: Post-emergence glasshouse herbicide test; details: POST Application, after 13 days
How it was run: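 Solanum nigrum seeds were sown in pots of standard soil and grown for 8 days in a glasshouse at 24/16° C. day/night, 14 hours light and 65% humidity. Plants were then sprayed post-emergence with the active ingredient formulated in acetone/water (50:50) containing 0.5% Tween 20. They were grown on under the same conditions with twice-daily watering, and percentage plant damage was scored after 13 days.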

[5] = tested on: Alopecurus myosuroides (ALOMY); experiment: Post-emergence glasshouse herbicide test; details: POST Application, after 13 days
How it was run: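 Alopecurus myosuroides seeds were sown in pots of standard soil and grown for 8 days in a glasshouse at 24/16° C. day/night, 14 hours light and 65% humidity. The plants were then sprayed post-emergence with an aqueous solution made from the active ingredient in acetone/water (50:50) containing 0.5% Tween 20. Percentage plant damage was scored 13 days later.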

[6] = tested on: Ipomoea hederacea (IPOHE); experiment: Post-emergence glasshouse herbicide test; details: POST Application, after 13 days
[7] = tested on: Amaranthus retoflexus (AMARE); experiment: Pre-emergence glasshouse herbicide test; details: PRE Application, after 13 days
[8] = tested on: Alopecurus myosuroides (ALOMY); experiment: Pre-emergence glasshouse herbicide test; details: PRE Application, after 13 days
How it was run: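 Alopecurus myosuroides seeds were sown in standard soil in pots and kept one day in a glasshouse at 24/16° C. day/night, 14 hours light and 65% humidity. The soil was then sprayed pre-emergence with the active ingredient in acetone/water (50:50) containing 0.5% Tween 20. Plants grew on, watered twice daily, and percentage damage was scored 13 days later.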

[9] = tested on: Amaranthus retoflexus (AMARE); experiment: Post-emergence glasshouse herbicide test; details: POST Application, after 13 days
[10] = tested on: Echinochloa crus-galli (ECHCG); experiment: Pre-emergence glasshouse herbicide test; details: PRE Application, after 13 days
[11] = tested on: Ipomoea hederacea (IPOHE); experiment: Pre-emergence glasshouse herbicide test; details: PRE Application, after 13 days
[12] = tested on: Echinochloa crus-galli (ECHCG); experiment: Post-emergence glasshouse herbicide test; details: POST Application, after 13 days
[13] = tested on: Amaranthus retoflexus (AMARE); experiment: Post-emergence glasshouse herbicide test; details: POST Application, 1000 g/h, after 13 days
[14] = tested on: Echinochloa crus-galli (ECHCG); experiment: Post-emergence glasshouse herbicide test; details: POST Application, 1000 g/h, after 13 days
[15] = tested on: Ipomoea hederacea (IPOHE); experiment: Post-emergence glasshouse herbicide test; details: POST Application, 1000 g/h, after 13 days
Solanum nigrum (SOLNI) [16] = experiment: Pre-emergence glasshouse herbicide test; details: PRE Application, 1000 g/h, after 13 days
[17] = tested on: Amaranthus retoflexus (AMARE); experiment: Pre-emergence glasshouse herbicide test; details: PRE Application, 1000 g/h, after 13 days
Setaria faberi (SETFA) [18] = experiment: Pre-emergence glasshouse herbicide test; details: PRE Application, 1000 g/h, after 13 days
[19] = tested on: Echinochloa crus-galli (ECHCG); experiment: Pre-emergence glasshouse herbicide test; details: PRE Application, 1000 g/h, after 13 days
[20] = tested on: Ipomoea hederacea (IPOHE); experiment: Pre-emergence glasshouse herbicide test; details: PRE Application, 1000 g/h, after 13 days

SMILES | percentage damage caused to the plant, SETFA (Setaria faberi (SETFA) [2]; 1000 g/h) | percentage damage caused to the plant, SOLNI (Solanum nigrum (SOLNI) [4]; 1000 g/h) | percentage damage caused to the plant, ALOMY ([5]; 1000 g/h) | percentage damage caused to the plant, AMARE [13] | percentage damage caused to the plant, ECHCG [14] | percentage damage caused to the plant, IPOHE [15] | percentage damage caused to the plant, SOLNI (Solanum nigrum (SOLNI) [16]) | percentage damage caused to the plant, ALOMY ([8]; 1000 g/h) | percentage damage caused to the plant, AMARE [17] | percentage damage caused to the plant, SETFA (Setaria faberi (SETFA) [18]) | percentage damage caused to the plant, ECHCG [19] | percentage damage caused to the plant, IPOHE [20] | other results
Cn1nnnc1NC(=O)c1nc2ccccc2n(-c2ccoc2)c1=O [Compound 5.013] | – | – | – | – | – | – | – | – | – | – | – | – | percentage damage caused to the plant, SETFA (Setaria faberi (SETFA) [1]; applied at 250 g/ha): 2 (2=20-39%); percentage damage caused to the plant, SETFA (Setaria faberi (SETFA) [2]; applied at 250 g/ha): 1 (1=0-19%); percentage damage caused to the plant, SOLNI (Solanum nigrum (SOLNI) [3]; applied at 250 g/ha): 5 (5=80-100%); percentage damage caused to the plant, SOLNI (Solanum nigrum (SOLNI) [4]; applied at 250 g/ha): 5 (5=80-100%); percentage damage caused to the plant, ALOMY ([5]; applied at 250 g/ha): 1 (1=0-19%); percentage damage caused to the plant, IPOHE ([6]; applied at 250 g/ha): 4 (4=60-79%); percentage damage caused to the plant, AMARE ([7]; applied at 250 g/ha): 5 (5=80-100%); percentage damage caused to the plant, ALOMY ([8]; applied at 250 g/ha): 1 (1=0-19%); percentage damage caused to the plant, AMARE ([9]; applied at 250 g/ha): 5 (5=80-100%); percentage damage caused to the plant, ECHCG ([10]; applied at 250 g/ha): 2 (2=20-39%); percentage damage caused to the plant, IPOHE ([11]; applied at 250 g/ha): 4 (4=60-79%); percentage damage caused to the plant, ECHCG ([12]; applied at 250 g/ha): 1 (1=0-19%)
Cc1cc(-n2c(=O)c(C(=O)Nc3nnnn3C)nc3ccccc32)ccc1F [Compound 5.028] | – | – | – | – | – | – | – | – | – | – | – | – | percentage damage caused to the plant, SETFA (Setaria faberi (SETFA) [1]; applied at 500 g/ha): 5 (5=80-100%); percentage damage caused to the plant, SETFA (Setaria faberi (SETFA) [2]; applied at 500 g/ha): 5 (5=80-100%); percentage damage caused to the plant, SOLNI (Solanum nigrum (SOLNI) [3]; applied at 500 g/ha): 5 (5=80-100%); percentage damage caused to the plant, SOLNI (Solanum nigrum (SOLNI) [4]; applied at 500 g/ha): 5 (5=80-100%); percentage damage caused to the plant, ALOMY ([5]; applied at 500 g/ha): 4 (4=60-79%); percentage damage caused to the plant, IPOHE ([6]; applied at 500 g/ha): 5 (5=80-100%); percentage damage caused to the plant, AMARE ([7]; applied at 500 g/ha): 5 (5=80-100%); percentage damage caused to the plant, ALOMY ([8]; applied at 500 g/ha): 3 (3=40-59%); percentage damage caused to the plant, AMARE ([9]; applied at 500 g/ha): 5 (5=80-100%); percentage damage caused to the plant, ECHCG ([10]; applied at 500 g/ha): 5 (5=80-100%); percentage damage caused to the plant, IPOHE ([11]; applied at 500 g/ha): 5 (5=80-100%); percentage damage caused to the plant, ECHCG ([12]; applied at 500 g/ha): 5 (5=80-100%)
Cn1nnnc1NC(=O)c1nc2ccccc2n(-c2cccc(C(F)(F)F)c2)c1=O [Compound 5.026] | 5 (5=80-100%) | 5 (5=80-100%) | 5 (5=80-100%) | 5 (5=80-100%) | 5 (5=80-100%) | 5 (5=80-100%) | 5 (5=80-100%) | 5 (5=80-100%) | 5 (5=80-100%) | 5 (5=80-100%) | 5 (5=80-100%) | 5 (5=80-100%) | –
Cn1ncnc1NC(=O)c1nc2ccccc2n(-c2ccccc2)c1=O [Compound 5.041] | 1 (1=0-19%) | 5 (5=80-100%) | 2 (2=20-39%) | 5 (5=80-100%) | 1 (1=0-19%) | 5 (5=80-100%) | 5 (5=80-100%) | 1 (1=0-19%) | 5 (5=80-100%) | 1 (1=0-19%) | 1 (1=0-19%) | 2 (2=20-39%) | –
Cn1nnnc1NC(=O)c1nc2ccc(Cl)cc2n(-c2ccccc2)c1=O [Compound 5.008] | 5 (5=80-100%) | 5 (5=80-100%) | 2 (2=20-39%) | 5 (5=80-100%) | 2 (2=20-39%) | 5 (5=80-100%) | 5 (5=80-100%) | 2 (2=20-39%) | 5 (5=80-100%) | 5 (5=80-100%) | 2 (2=20-39%) | 5 (5=80-100%) | –
Cn1nnnc1NC(=O)c1nc2ccccc2n(-c2ccc(Cl)cc2)c1=O [Compound 5.015] | 5 (5=80-100%) | 5 (5=80-100%) | 4 (4=60-79%) | 5 (5=80-100%) | 5 (5=80-100%) | 5 (5=80-100%) | 5 (5=80-100%) | 2 (2=20-39%) | 5 (5=80-100%) | 5 (5=80-100%) | 5 (5=80-100%) | 5 (5=80-100%) | –
Cn1nnnc1NC(=O)c1nc2cccnc2n(-c2ccccc2)c1=O [Compound 4.002] | 1 (1=0-19%) | 3 (3=40-59%) | 1 (1=0-19%) | 2 (2=20-39%) | 1 (1=0-19%) | 1 (1=0-19%) | 1 (1=0-19%) | 1 (1=0-19%) | 1 (1=0-19%) | 1 (1=0-19%) | 1 (1=0-19%) | 1 (1=0-19%) | –
Cn1nnnc1NC(=O)c1nc2ccc(F)cc2n(-c2ccccc2)c1=O [Compound 5.010] | – | – | – | – | – | – | – | – | – | – | – | – | percentage damage caused to the plant, SETFA (Setaria faberi (SETFA) [1]; applied at 250 g/ha): 1 (1=0-19%); percentage damage caused to the plant, SETFA (Setaria faberi (SETFA) [2]; applied at 250 g/ha): 4 (4=60-79%); percentage damage caused to the plant, SOLNI (Solanum nigrum (SOLNI) [3]; applied at 250 g/ha): 4 (4=60-79%); percentage damage caused to the plant, SOLNI (Solanum nigrum (SOLNI) [4]; applied at 250 g/ha): 5 (5=80-100%); percentage damage caused to the plant, ALOMY ([5]; applied at 250 g/ha): 1 (1=0-19%); percentage damage caused to the plant, IPOHE ([6]; applied at 250 g/ha): 5 (5=80-100%); percentage damage caused to the plant, AMARE ([7]; applied at 250 g/ha): 5 (5=80-100%); percentage damage caused to the plant, ALOMY ([8]; applied at 250 g/ha): 1 (1=0-19%); percentage damage caused to the plant, AMARE ([9]; applied at 250 g/ha): 5 (5=80-100%); percentage damage caused to the plant, ECHCG ([10]; applied at 250 g/ha): 1 (1=0-19%); percentage damage caused to the plant, IPOHE ([11]; applied at 250 g/ha): 2 (2=20-39%); percentage damage caused to the plant, ECHCG ([12]; applied at 250 g/ha): 3 (3=40-59%)
Cn1nnnc1NC(=O)c1nc2ccccc2n(-c2ccccc2)c1=O [Compound 5.004] | 2 (2=20-39%) | 5 (5=80-100%) | 2 (2=20-39%) | 5 (5=80-100%) | 3 (3=40-59%) | 5 (5=80-100%) | 5 (5=80-100%) | 3 (3=40-59%) | 5 (5=80-100%) | 4 (4=60-79%) | 5 (5=80-100%) | 5 (5=80-100%) | –
